Measured values as given in patent publication US20160045505A1, “COMPOUNDS AND COMPOSITIONS FOR THE TREATMENT OF PARASITIC DISEASES” (NOVARTIS AG, priority 2013, published 2016).

Tests used:
[1] = patients injected with Melarsoprol (Arsobal); cited from earlier work
[2] = tested on: Leishmania donovani axenic amastigote parasites; assay: Leishmania donovani axenic amastigote proliferation assay (Cell TiterGlo luminescence, 2 day incubation); type: cell-based; settings: Leishmania donovani, axenic amastigotes, inhibition of proliferation; read-out: L. donovani amastigotes EC50
[3] = tested on: L. donovani HU3 strain in mouse peritoneal macrophages; assay: Assay for proliferation of Leishmania parasites in infected mouse peritoneal macrophages (SybrGreen staining, high-content imaging, 5 days); type: cell-based, Leishmania donovani; settings: Leishmania donovani, Peritoneal macrophage, L. donovani in mouse peritoneal macrophages, inhibition of proliferation; read-out: L. donovani Macrophage EC50
[4] = tested on: Trypanosoma brucei Lister 427 strain, bloodstream form; assay: Assay for proliferation of kinetoplastid parasite Trypanosoma brucei (Cell Titer Glo, 48 hours); type: cell-based; settings: Trypanosoma brucei, T. brucei Lister 427 bloodstream form, inhibition of proliferation; read-out: T. brucei EC50
Procedure, shortened: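 Bloodstream-form T. brucei Lister 427 in HMI-9 medium was exposed to compound (DMSO vehicle) for 48 hours at 37° C, 5% CO2. Parasite growth was read as ATP by CellTiter-Glo luminescence, with EC50 calculated from percent inhibition.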

[5] = tested on: Trypanosoma cruzi amastigotes (Tulahuen strain expressing Lac-Z) cultured in 3T3 fibroblast cells; assay: microbe, parasite or virus in culture; type: cell-based; settings: Trypanosoma cruzi, TULAHUEN, Fibroblast, T. cruzi amastigotes in 3T3 fibroblast cells, inhibition of proliferation; read-out: T cruzi EC50

Row | SMILES | patients who developed reactive encephalopathy (convulsions, progressive coma, or psychotic reactions) [1] | reactive encephalopathy cases that result in death [1] | EC50 [2] | EC50 [3] | EC50 [4] | EC50 [5]
1 | Nc1nc(N)nc(Nc2ccc([As]3SCC(CO)S3)cc2)n1 (stereo not shown) [Melarsoprol] | 3-10 % of patients | 10-70 % of such cases |  |  |  | 
2 | Cc1nc(C)c(C(=O)Nc2ccc(F)c(-c3cn4cc(NC(=O)c5ccccn5)cnc4n3)c2)o1 [Compound 119] |  |  | 56 nM | 289 nM | 86 nM | 78 nM
3 | Cc1nc(C)c(C(=O)Nc2ccc(F)c(-c3cn4cc(NC(=O)C5(C#N)CC5)cnc4n3)c2)o1 [Compound 153] |  |  | 348 nM | 901 nM | 135 nM | 3400 nM
